According to patent EP0435946B1, “METHODS FOR MODIFYING THE BINDING OF CELL ADHESION RECEPTORS” (LA JOLLA CANCER RESEARCH FOUNDATION, priority 1988, dated 1990):

Experiments:
[1] = target: T1, fibronectin receptor (Homo sapiens, UniProt P05556+P08648); test: Attachment of fibronectin receptor liposomes to fibronectin-coated wells in the presence of cations; assay type: binding; parameters: from tissue; host or cells: human placenta; settings: for fibronectin receptor liposome attachment, result in words: compared with Ca²⁺, Ca²⁺ and Mg²⁺, or absence of Ca²⁺ or Mg²⁺; for % Attachment: cations 1 mM, percentage of control attachment in 1 mM CaCl₂ and 1 mM MgCl₂, mean and standard error, three experiments
T1 sequence (P08648 42-894 limits assumed): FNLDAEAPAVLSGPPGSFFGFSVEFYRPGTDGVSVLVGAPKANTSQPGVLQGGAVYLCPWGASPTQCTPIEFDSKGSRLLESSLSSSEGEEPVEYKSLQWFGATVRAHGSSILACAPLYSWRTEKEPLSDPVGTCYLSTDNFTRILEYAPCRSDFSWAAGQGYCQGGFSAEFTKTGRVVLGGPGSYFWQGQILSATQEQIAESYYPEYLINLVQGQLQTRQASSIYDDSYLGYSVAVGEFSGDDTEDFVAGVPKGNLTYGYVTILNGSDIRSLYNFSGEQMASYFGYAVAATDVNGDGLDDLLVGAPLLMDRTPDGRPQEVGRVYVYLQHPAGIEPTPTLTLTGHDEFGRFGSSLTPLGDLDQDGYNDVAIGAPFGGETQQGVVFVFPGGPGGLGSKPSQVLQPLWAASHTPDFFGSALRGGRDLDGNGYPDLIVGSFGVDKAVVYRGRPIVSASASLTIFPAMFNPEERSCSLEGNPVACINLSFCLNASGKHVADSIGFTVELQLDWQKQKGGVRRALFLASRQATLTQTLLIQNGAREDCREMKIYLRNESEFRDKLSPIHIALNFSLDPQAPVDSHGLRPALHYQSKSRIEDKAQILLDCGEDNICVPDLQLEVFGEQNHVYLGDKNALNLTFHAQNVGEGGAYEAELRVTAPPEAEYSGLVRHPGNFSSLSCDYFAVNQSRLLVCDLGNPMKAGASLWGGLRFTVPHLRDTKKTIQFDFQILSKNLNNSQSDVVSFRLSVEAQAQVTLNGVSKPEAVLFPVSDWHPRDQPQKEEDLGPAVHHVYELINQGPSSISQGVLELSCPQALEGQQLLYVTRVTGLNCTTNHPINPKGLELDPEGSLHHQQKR
T1 sequence (P08648 895-1049 partner limits assumed): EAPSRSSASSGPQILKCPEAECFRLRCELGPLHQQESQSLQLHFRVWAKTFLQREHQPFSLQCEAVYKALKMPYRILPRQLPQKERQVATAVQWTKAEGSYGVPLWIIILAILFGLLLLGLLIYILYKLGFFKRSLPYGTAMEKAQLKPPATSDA
T1 sequence (P05556 21-798): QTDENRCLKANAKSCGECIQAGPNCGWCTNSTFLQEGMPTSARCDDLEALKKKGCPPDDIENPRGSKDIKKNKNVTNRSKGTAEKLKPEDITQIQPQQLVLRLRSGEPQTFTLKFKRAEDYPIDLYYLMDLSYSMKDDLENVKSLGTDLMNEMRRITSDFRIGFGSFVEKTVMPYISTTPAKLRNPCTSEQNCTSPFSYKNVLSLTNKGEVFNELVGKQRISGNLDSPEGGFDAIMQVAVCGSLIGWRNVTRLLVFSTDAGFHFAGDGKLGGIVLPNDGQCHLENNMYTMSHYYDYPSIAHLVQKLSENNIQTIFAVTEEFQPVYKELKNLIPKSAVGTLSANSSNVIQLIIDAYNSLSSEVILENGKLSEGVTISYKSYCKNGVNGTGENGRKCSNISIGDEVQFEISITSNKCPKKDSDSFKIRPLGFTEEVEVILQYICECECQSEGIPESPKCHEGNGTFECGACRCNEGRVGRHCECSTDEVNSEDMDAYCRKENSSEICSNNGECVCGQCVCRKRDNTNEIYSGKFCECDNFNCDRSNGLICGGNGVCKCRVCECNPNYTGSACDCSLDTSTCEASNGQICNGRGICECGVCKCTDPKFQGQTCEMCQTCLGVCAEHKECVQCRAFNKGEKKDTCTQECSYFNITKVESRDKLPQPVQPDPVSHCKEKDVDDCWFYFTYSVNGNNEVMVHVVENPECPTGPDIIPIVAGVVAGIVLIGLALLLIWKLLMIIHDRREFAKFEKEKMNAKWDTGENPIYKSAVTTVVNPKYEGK
Description: The effect of cations on the binding of the fibronectin receptor to its ligand was studied by incorporating the receptor into liposomes and measuring receptor liposome attachment to a fibronectin-coated surface in the presence of various cations.
(§1) Fibronectin receptors were purified from human placenta by affinity chromatography on a 110 kDa chymotryptic fragment of fibronectin, according to the methods of Pytela et al., Cell 40:191 (1985), and Pytela et al., Meth. Enzymol. 144:475-489 (1987), with the following modifications. The 110 kDa fragment corresponds to the 120 kDa fragment described in Pytela et al. (1985), supra. […] Briefly, homogenized placental tissue was washed once with 2 volumes of cold TBS containing 1 mM CaCl₂, 1 mM MgCl₂ and 3 mM phenylmethyl sulfonyl fluoride (PMSF), centrifuged, and the pellet was extracted with 1 volume of cold TBS containing 100 mM octyl-β-D-glucopyranoside (Calbiochem, La Jolla, CA), and calcium, magnesium, and PMSF as in Pytela et al., (1985) supra. The clear extract was slowly applied at 4°C, first to a column of plain Sepharose, and then to 110 kDa fibronectin fragment-Sepharose. […] Bound receptor was eluted with the wash buffer containing 20 mM EDTA in place of calcium and magnesium. Eluted receptor was used immediately for the preparation of receptor liposomes or stored frozen. In some experiments, 1 mM MnCl₂ was substituted for CaCl₂ and MgCl₂ throughout the isolation procedure.
Aliquots of the receptor liposome preparation were mixed with the indicated cations (1 mM) and the attachment of the liposomes to microtiter wells coated with fibronectin was assayed. The results are expressed as a percentage of control attachment, which was measured in the presence of 1 mM CaCl₂ and 1 mM MgCl₂. Mean and standard error from three experiments are shown.

[2] = target: T2, Fibronectin receptor (FNR) (Homo sapiens, UniProt P05556+P08648); test: Inhibition by Gd3+ of fibronectin receptor liposome attachment; assay type: binding; settings: for % Inhibition FNR: 1 mM CaCl₂ and 1 mM MgCl₂
T2 construct: from tissue; host or cells: human placenta
T2 sequence (P08648 42-894 limits assumed): as the sequence (P08648 42-894 limits assumed) above
T2 sequence (P08648 895-1049 partner limits assumed): as the sequence (P08648 895-1049 partner limits assumed) above
T2 sequence (P05556 21-798): as the sequence (P05556 21-798) above
Method: (§2) The ability of Gd³⁺ to inhibit the binding of integrins was assayed in the liposome attachment system. Fibronectin receptor (FNR) and vitronectin receptor (VNR) liposomes were prepared by dialysis against TBS containing 1 mM CaCl₂ and 1 mM MgCl₂. Aliquots of GdCl₃ were added to the liposomes at the start of the assay. […] Such situations include binding of inflammatory cells at the site of a tissue injury caused by, for example, an ischemic episode, such as is associated with a cardiac or brain infarct.

[3] = target: T3, vitronectin receptor (VNR) (Homo sapiens, UniProt P05106+P06756); test: Inhibition by Gd3+ of vitronectin receptor liposome attachment; assay type: binding; settings: for % Inhibition VNR: 1 mM CaCl₂ and 1 mM MgCl₂
T3 construct: Vitronectin receptor was purified from human placenta; from tissue; host or cells: human placenta
T3 sequence (P06756 31-889 limits assumed): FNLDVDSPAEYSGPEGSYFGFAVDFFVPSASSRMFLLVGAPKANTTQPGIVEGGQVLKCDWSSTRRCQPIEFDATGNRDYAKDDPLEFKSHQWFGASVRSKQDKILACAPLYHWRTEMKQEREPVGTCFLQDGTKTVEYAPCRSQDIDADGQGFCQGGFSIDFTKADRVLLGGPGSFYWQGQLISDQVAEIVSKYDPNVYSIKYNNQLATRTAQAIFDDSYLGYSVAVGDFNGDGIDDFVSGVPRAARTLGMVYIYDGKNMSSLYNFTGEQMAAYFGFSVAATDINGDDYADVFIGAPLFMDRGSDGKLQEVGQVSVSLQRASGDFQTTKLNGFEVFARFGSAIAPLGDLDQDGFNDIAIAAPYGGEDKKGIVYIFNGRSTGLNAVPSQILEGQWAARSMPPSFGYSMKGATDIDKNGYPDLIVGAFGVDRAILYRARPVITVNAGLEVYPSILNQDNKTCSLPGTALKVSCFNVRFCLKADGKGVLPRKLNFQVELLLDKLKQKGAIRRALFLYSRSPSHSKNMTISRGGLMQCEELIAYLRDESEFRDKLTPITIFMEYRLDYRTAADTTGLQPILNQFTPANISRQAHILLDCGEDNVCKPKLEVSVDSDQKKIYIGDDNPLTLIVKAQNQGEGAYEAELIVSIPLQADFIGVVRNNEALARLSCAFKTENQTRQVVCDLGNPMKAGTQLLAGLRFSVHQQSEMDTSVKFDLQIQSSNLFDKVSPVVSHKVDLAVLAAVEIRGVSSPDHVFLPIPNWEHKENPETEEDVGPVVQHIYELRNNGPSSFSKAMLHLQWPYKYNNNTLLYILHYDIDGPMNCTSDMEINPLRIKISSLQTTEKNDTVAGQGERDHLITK
T3 sequence (P06756 891-1048 partner limits assumed): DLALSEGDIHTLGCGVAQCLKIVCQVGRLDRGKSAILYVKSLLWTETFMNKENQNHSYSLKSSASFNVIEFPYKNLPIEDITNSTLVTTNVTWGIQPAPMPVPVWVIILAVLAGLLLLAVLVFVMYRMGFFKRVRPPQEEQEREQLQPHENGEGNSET
T3 sequence (P05106 27-788): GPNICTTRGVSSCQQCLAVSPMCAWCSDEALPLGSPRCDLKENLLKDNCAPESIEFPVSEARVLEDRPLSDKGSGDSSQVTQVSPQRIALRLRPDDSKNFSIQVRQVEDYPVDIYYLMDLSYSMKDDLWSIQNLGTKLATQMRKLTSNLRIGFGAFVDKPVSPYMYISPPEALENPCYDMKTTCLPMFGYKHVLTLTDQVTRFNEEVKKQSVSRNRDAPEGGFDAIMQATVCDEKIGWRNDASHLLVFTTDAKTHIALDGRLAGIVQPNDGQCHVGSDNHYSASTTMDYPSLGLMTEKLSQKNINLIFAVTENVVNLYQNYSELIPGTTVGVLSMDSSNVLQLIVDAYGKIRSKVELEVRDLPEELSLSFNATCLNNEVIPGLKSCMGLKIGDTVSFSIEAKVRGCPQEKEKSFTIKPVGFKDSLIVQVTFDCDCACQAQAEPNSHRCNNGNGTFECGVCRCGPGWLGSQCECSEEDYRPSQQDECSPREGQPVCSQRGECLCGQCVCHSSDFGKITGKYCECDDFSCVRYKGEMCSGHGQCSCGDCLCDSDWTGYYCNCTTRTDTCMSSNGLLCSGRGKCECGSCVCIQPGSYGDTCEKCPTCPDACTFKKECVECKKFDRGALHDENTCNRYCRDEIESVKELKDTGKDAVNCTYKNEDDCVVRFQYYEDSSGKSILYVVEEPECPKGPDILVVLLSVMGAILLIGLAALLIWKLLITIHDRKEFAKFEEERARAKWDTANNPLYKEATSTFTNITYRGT
Method: as §2

[4] = tested on: A375M cells; test: In vitro wound model of cell migration on ligand-coated cell-free lanes; assay type: cell-based, human; settings: 100 µM MnCl₂ in media with Ca²⁺ and Mg²⁺; spaces coated with fibronectin and Type IV collagen; versus controls
Method: An in vitro wounding assay was developed to test the effects of Mn²⁺ on cell migration into a wounded (cell free) area that was coated with various adhesion proteins. This assay allowed the determination of the specific ligands and the respective receptors that are involved in the migration process. More specifically, this assay was used to test cell migration on various substrates in the presence of Mn²⁺. A375M cells were grown to confluency in 6 well culture dishes (Corning, New York, NY). A specially designed comb which scratches out 4-2mm wide lanes was used to make a crossing pattern in the cell layer, removing the cells. The cell-free lanes were then coated for 1 hour at 37°C with one of the following ligands: fibronectin, vitronectin, Type I or Type IV collagen, bovine serum albumin or laminin. These proteins were dissolved in PBS at a concentration of 10µg/ml and then added directly to the wounded cell layer.
Standard Culture Media containing Ca²⁺ and Mg²⁺ and 100 µM MnCl₂ was added to the culture dishes while control dishes had the same media without Mn²⁺. Cell migration was monitored by visualization.

[5] = tested on: A375M cells
[6] = target: T4, Vitronectin receptor (Homo sapiens, UniProt P05106+P06756); test: Vitronectin receptor liposome attachment to vitronectin; assay type: binding; settings: a number of liposome attachment assays
T4 construct: Vitronectin receptor was purified from human placenta; from tissue; host or cells: human placenta
T4 sequence (P06756 31-889 limits assumed): as the sequence (P06756 31-889 limits assumed) above
T4 sequence (P06756 891-1048 partner limits assumed): as the sequence (P06756 891-1048 partner limits assumed) above
T4 sequence (P05106 27-788): as the sequence (P05106 27-788) above
Method: Vitronectin receptor was purified from human placenta as described in Example I for the fibronectin receptor, but a different affinity matrix containing the peptide Gly-Arg-Gly-Asp-Ser-Pro-Lys was employed. The peptide was synthesized with an Applied Biosystems Model 430A, according to the manufacturer's instructions. Vitronectin receptor was isolated according to the method of Example I in the presence of 1 mM Ca²⁺ and 1mM Mg²⁺ or in 1 mM Ca²⁺ alone. In a number of liposome attachment assays, Mn²⁺ enhanced the binding of this integrin to vitronectin by 20-50% over the binding measured in Ca²⁺ and Mg²⁺.

[7] = target: T1, fibronectin receptor; test: Attachment of fibronectin receptor liposomes to fibronectin-coated wells in the presence of cations; assay type: binding; parameters: from tissue; host or cells: human placenta; settings: for binding of fibronectin receptor liposomes to fibronectin, multiple of binding measured in Ca²⁺ alone: in 1mM Ca²⁺; for binding of fibronectin receptor liposomes to fibronectin, multiple of binding measured in Ca²⁺ alone / binding of fibronectin receptor liposomes to fibronectin, multiple of binding measured in Mg²⁺ alone: mean and standard error, two experiments; for binding of fibronectin receptor liposomes to fibronectin, multiple of binding measured in Mg²⁺ alone: in 1mM Mg²⁺
[8] = target: T1, fibronectin receptor; settings: Mn²⁺ versus Ca²⁺/Mg²⁺
[9] = target: T1, fibronectin receptor; test: Yield of fibronectin receptor from affinity chromatography on 110 kDa fibronectin fragment, densitometry of SDS-PAGE; parameters: from tissue; host or cells: human placenta
Method: as §1
Fibronectin receptor can be isolated by affinity chromatography on the 110 kDa fibronectin fragment (See Pytela, et al., (1985), (1987), supra). […]

[10] = tested on: Type I collagen receptor; test: Type I collagen receptor liposome binding to collagen; parameters: species or system human
Description: Type I collagen receptor was also isolated from placenta, employing the method given in Example I with the following modifications. Mn²⁺ was used in the chromatography buffers for this procedure, and the affinity matrix contained Type I collagen.

[Ba+2] [Ba²⁺]
fibronectin receptor liposome attachment, result in words [1]: produced less attachment than Ca²⁺, but did support fibronectin receptor attachment above the level found in the absence of either Ca²⁺ or Mg²⁺

[Be+2] [Be²⁺]
fibronectin receptor liposome attachment, result in words [1]: produced less attachment than Ca²⁺, but did support fibronectin receptor attachment above the level found in the absence of either Ca²⁺ or Mg²⁺

[Ca+2].[Cl-].[Cl-] [Ca²⁺, CaCl₂, reference compound]
% Attachment [1]: 75 ± 10%

[Cd+2] [Cd²⁺]
% Attachment [1]: 130 ± 30% | fibronectin receptor liposome attachment, result in words [1]: increased the percentage of attachment above that obtained in the presence of Ca²⁺ and Mg²⁺

[Co+2] [Co²⁺]
% Attachment [1]: 150 ± 13% | fibronectin receptor liposome attachment, result in words [1]: increased the percentage of attachment above that obtained in the presence of Ca²⁺ and Mg²⁺

[Cu+2] [Cu²⁺]
fibronectin receptor liposome attachment, result in words [1]: produced increased attachment above that found in the absence of Ca²⁺ or Mg²⁺ in at least one experiment

[Fe+2] [Fe²⁺]
fibronectin receptor liposome attachment, result in words [1]: produced less attachment than Ca²⁺, but did support fibronectin receptor attachment above the level found in the absence of either Ca²⁺ or Mg²⁺

[Cl][Gd]([Cl])[Cl] [Gd³⁺, GdCl₃]
% Inhibition FNR ([2]; Gd³⁺ 0.1 mM): 8% | % Inhibition FNR ([2]; Gd³⁺ 0.3 mM): 61% | % Inhibition FNR ([2]; Gd³⁺ 1 mM): 91% | % Inhibition FNR ([2]; Gd³⁺ 3 mM): 87% | attachment of fibronectin receptor to its ligand, result in words ([2]; concentrations above 0.3 mM): significant decrease in attachment | % Inhibition VNR ([3]; Gd³⁺ 0.1 mM): 0% | % Inhibition VNR ([3]; Gd³⁺ 0.3 mM): 59% | % Inhibition VNR ([3]; Gd³⁺ 1 mM): 93% | % Inhibition VNR ([3]; Gd³⁺ 3 mM): 100% | attachment of vitronectin receptor to its ligand, result in words ([3]; concentrations above 0.3 mM): significant decrease in attachment | fibronectin receptor liposome attachment, result in words [1]: produced increased attachment above that found in the absence of Ca²⁺ or Mg²⁺ in at least one experiment

[La+3] [La³⁺]
fibronectin receptor liposome attachment, result in words [1]: produced increased attachment above that found in the absence of Ca²⁺ or Mg²⁺ in at least one experiment

[Cl-].[Cl-].[Mg+2] [Mg²⁺, MgCl₂, reference compound]
% Attachment [1]: 110 ± 5%

[Cl][Mn][Cl] [Mn²⁺, MnCl₂]
migration into cell-free spaces, result in words [4]: augmented migration | increase in invasion / migration of cells ([5]; 100 µM MnCl₂, after 72 hours): 30% | effect on cell viability and migration ([5]; concentrations higher than 100 µM): cell viability is affected and therefore migration is reduced | enhancement of binding to vitronectin over the binding measured in Ca²⁺ and Mg²⁺ [6]: 20-50% | binding of fibronectin receptor liposomes to fibronectin, multiple of binding measured in Ca²⁺ alone ([7]; 0.01 mM Mn²⁺ added): 1.23 ± 0.66 | binding of fibronectin receptor liposomes to fibronectin, multiple of binding measured in Mg²⁺ alone ([7]; 0.01 mM Mn²⁺ added): 0.97 ± 0.17 | binding of fibronectin receptor liposomes to fibronectin, multiple of binding measured in Ca²⁺ alone ([7]; 0.1mM Mn²⁺ added): 4.41 ± 0.33 | binding of fibronectin receptor liposomes to fibronectin, multiple of binding measured in Mg²⁺ alone ([7]; 0.1mM Mn²⁺ added): 2.04 ± 0.08 | binding of fibronectin receptor liposomes to fibronectin, multiple of binding measured in Ca²⁺ alone ([7]; 1 mM Mn²⁺ added): 5.78 ± 0.47 | binding of fibronectin receptor liposomes to fibronectin, multiple of binding measured in Mg²⁺ alone ([7]; 1 mM Mn²⁺ added): 3.12 ± 0.10 | concentration at which liposome attachment was promoted (as low as) ([7]; cation titration, Figure 1): 3 µM | factor of increase of the relative affinity of the receptor for the fragment ([8]; ligand 110 kDa fibronectin fragment): 4.5 | factor of increase of the relative receptor affinity for the peptide ([8]; ligand GRGDSP): 50 | % Attachment [1]: 210 ± 29% | binding of receptor isolated with Mn²⁺ in the liposome attachment assay, Mn²⁺ versus Ca²⁺/Mg²⁺ ([1]; receptor isolated with Mn²⁺): several times higher | yield of receptor with Mn²⁺ relative to Ca²⁺ and Mg²⁺ ([9]; 1 mM Mn²⁺ substituted for Ca²⁺/Mg²⁺, estimated by densitometry): four-fold higher | Receptor Peak Area ([9]; cations 1 mM in chromatography buffers, Coomassie blue gels scanned): 18.2 | binding of Type I collagen receptor liposomes to collagen, result in words [10]: clear and specific binding to collagen

[Ni+2] [Ni²⁺]
% Attachment [1]: 100 ± 12% | fibronectin receptor liposome attachment, result in words [1]: as effective as the combination of Ca²⁺ and Mg²⁺

[Sr+2] [Sr²⁺]
fibronectin receptor liposome attachment, result in words [1]: produced increased attachment above that found in the absence of Ca²⁺ or Mg²⁺ in at least one experiment

[Zn+2] [Zn²⁺]
attachment, % of the control value ([1]; one similar assay): 128%
